# Measured values published in PubChem BioAssay (NCI).
# “And” between values parts separate entries of the source, which are not always exact repeats. Identical values can stand only once.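 Each compound was tested at five concentrations against cells in 96-well plates for 48 hours. GI50: concentration for 50% inhibition of growth. TGI: concentration producing complete growth inhibition.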
# What was measured:
# Experiment in all cases: NCI tumour cell line growth inhibition, 48 h
# [1] = tested on: SF-539 CNS
# [2] = tested on: SK-MEL-5 melanoma
# [3] = tested on: IGROV1 ovarian
# [4] = tested on: SR leukemia
# [5] = tested on: HL-60(TB) leukemia
# [6] = tested on: UACC-62 melanoma
# [7] = tested on: UO-31 renal
# [8] = tested on: RXF 393 renal
# [9] = tested on: OVCAR-3 ovarian
# [10] = tested on: SK-OV-3 ovarian
Compound,GI50 [1],TGI [1],GI50 [2],TGI [2],GI50 [3],TGI [3],GI50 [4],TGI [4],GI50 [5],TGI [5],GI50 [6],TGI [6],GI50 [7],TGI [7] [µM],GI50 [8],TGI [8],GI50 [9],TGI [9],GI50 [10],TGI [10]
CCOC(=O)c1cc(C(=O)c2cc(OC)cc(OC)c2)n2ncccc12,1.85 µM,40.2 µM,0.508 µM,> 100 µM,7.12 µM,> 100 µM,0.573 µM,> 100 µM,1.38 µM,4.66 µM,0.523 µM,> 100 µM,5.68 µM,> 100,1.64 µM,14.2 µM,0.402 µM,> 100 µM,4.9 µM,> 100 µM
NC(=O)c1c(OCc2c(F)cc(Br)cc2F)nsc1NC(=O)NCCCCN1CCCC1,1.38 µM,2.92 µM,1.56 µM,2.96 µM,0.327 µM,4.29 µM,1.74 µM,4.37 µM,2.4 µM,4.68 µM,1.82 µM,3.93 µM,0.498 µM,2.1,0.362 µM,1.71 µM,1.81 µM,4.52 µM,> 10 µM,> 10 µM
O=c1cccc(C#CCCCCOC2CCCO2)o1 (stereo unspecified),4.75 µM,> 36.6 µM,7.47 µM,> 16.4 µM,37.2 µM,> 88.8 µM,20.4 µM,> 100 µM,20.7 µM,52.9 µM,15.9 µM,> 56.8 µM,9.07 µM,> 57.6,6.77 µM,50.2 µM,11.2 µM,27.1 µM,> 30.4 µM,> 54.1 µM
Clc1ccc2c(NCCCN3CCN(c4nc(-n5ccnc5)nc5ccccc45)CC3)ccnc2c1,1.81 µM,3.34 µM,1.74 µM,3.17 µM,2.96 µM,23.7 µM,1.9 µM,5.7 µM,2.17 µM,5.18 µM,> 37.7 µM,> 67.1 µM,2.49 µM,,1.67 µM,3.34 µM,1.55 µM,3.15 µM,> 47.3 µM,> 62.8 µM
O=S(=O)(Nc1ccc(Cl)c(C(F)(F)F)c1)c1ccc(-c2cnc(C3CC3)o2)cc1,0.452 µM,2.16 µM,0.296 µM,1.75 µM,0.507 µM,5.96 µM,0.0822 µM,> 23 µM,0.261 µM,1.49 µM,0.203 µM,2.2 µM,0.871 µM,6.25,0.381 µM,1.66 µM,0.0393 µM,1.9 µM,0.919 µM,5.18 µM
COCCN1C2=CCCCC2=Nc2c(N)nc(N)nc21,,> 100 µM,,> 100 µM,,> 100 µM,,> 100 µM,,> 100 µM,,> 100 µM,,> 100,,> 100 µM,,77.7 µM,,> 100 µM
CN/N=C(\C)CC(=O)Nc1cccc(Cl)c1C,,> 100 µM,,> 100 µM,,> 100 µM,,53.5 µM,,> 100 µM,,> 100 µM,,> 100,,> 100 µM,,> 100 µM,,> 100 µM
O=C(c1cccs1)c1c(C(F)(F)F)n([O-])c2cc(F)c(F)cc2[n+]1=O,0.314 µM,0.588 µM,1.9 µM,4.44 µM,1.86 µM,3.92 µM,0.096 µM,0.48 µM,0.904 µM,5.65 µM,1.54 µM,3.58 µM,2.97 µM,5.51,2.42 µM,7.16 µM,1.66 µM,4.14 µM,2.69 µM,5.85 µM
O=C1C=C(Br)C(=O)C(Br)=C1,,> 100 µM,,> 100 µM,,> 100 µM,,> 80.6 µM,,54.9 µM,,> 100 µM,,> 100,,> 100 µM,,> 100 µM,,> 100 µM
NC(N)=NC(N)=NCCc1ccccc1,> 100 µM,> 100 µM,87.7 µM and 73.3 µM,> 100 µM,> 100 µM,> 100 µM,8.44 µM,> 100 µM,77.4 µM and > 100 µM,> 100 µM,> 100 µM,> 100 µM,98.9 µM and 38.5 µM,> 100,> 100 µM,> 100 µM,83.9 µM and > 100 µM,> 100 µM,64.9 µM and > 100 µM,> 100 µM
NC1=C(c2nc(-c3cc4ccccc4oc3=O)cs2)C(c2ccco2)c2c(c3ccccc3oc2=O)O1 (stereo unspecified),96.9 µg/mL,> 150 µg/mL,> 150 µg/mL,> 150 µg/mL,> 150 µg/mL,> 150 µg/mL,51.9 µg/mL,> 150 µg/mL,> 150 µg/mL,> 150 µg/mL,112 µg/mL,> 150 µg/mL,,,17.3 µg/mL,114 µg/mL,> 150 µg/mL,> 150 µg/mL,51.4 µg/mL,> 150 µg/mL
COC1OC(C)C(OC(=O)C(C)(C)C)C(C)(O)C1O (stereo unspecified),,> 100 µM,,> 100 µM,,> 100 µM,,> 100 µM,,> 100 µM,,> 100 µM,,,,> 100 µM,,> 100 µM,,
Cc1ccccc1NC(=O)C(=O)Cc1nc2ccccc2s1,,> 100 µM,,> 100 µM,,> 100 µM,,> 100 µM,,> 100 µM,,,,> 100,,> 100 µM,,> 100 µM,,> 100 µM
Oc1cccc(C2SCc3nc4ccccc4n32)c1 (stereo unspecified),,> 100 µM,,38.2 µM,,,,> 100 µM,,> 100 µM,,> 100 µM,,> 100,,> 100 µM,,> 100 µM,,> 100 µM
C=CC(=O)Nc1cc2c(Nc3ccc(OCc4ccccn4)c(Cl)c3)ncnc2cc1OCCN1CCOCC1,2.63 µM,> 100 µM,3.8 µM,14.3 µM,0.125 µM,4.01 µM,2.62 µM,> 100 µM,2.58 µM,22.5 µM,2.85 µM,17.4 µM,0.646 µM,> 100,0.784 µM,3.8 µM,1.16 µM,29.3 µM,,
